Results published in patent US20080132538A1, “Pharmaceutical uses for fluoroalkoxybenzylamino derivatives of nitrogen containing heterocycles” (Pfizer Inc, priority 2000, published 2008).

Tested on: not given
Conditions: not given
With `CC(C)(C)c1ccc(OC(F)(F)F)c(CN[C@H]2CCCN[C@H]2c2ccccc2)c1.Cl` the melting point was 262 to 264 °C.
With `CC(C)c1ccc(OCC(F)(F)F)c(CN[C@H]2CCCN[C@H]2c2ccccc2)c1.Cl` the melting point was over 280 °C.
`CN(C)c1ccc(OCC(F)(F)F)c(CN[C@H]2CCCN[C@H]2c2ccccc2)c1.Cl` showed a melting point of 250 to 252 °C.
With `Cl.FC(F)Oc1ccc(OC(F)F)c(CN[C@H]2CCCN[C@H]2c2ccccc2)c1` the melting point was 238 to 239 °C.
In the case of `CC(C)(C)c1ccc(OC(F)F)c(CN[C@H]2CCCN[C@H]2c2ccccc2)c1.Cl`, the melting point was 263 to 264 °C (dec.).
In the case of `CC(C)Oc1ccc(OC(F)(F)F)cc1CN[C@H]1CCCN[C@H]1c1ccccc1.Cl`, the melting point was 245 to 246 °C (dec.).
In the case of `CCOc1ccc(OC(F)(F)F)cc1CN[C@H]1CCCN[C@H]1c1ccccc1.Cl`, the melting point was > 275 °C (dec.).
With `CC(C)c1ccc(OC(F)F)c(CN[C@H]2CCCN[C@H]2c2ccccc2)c1.Cl` the melting point was 245 to 247 °C (dec.).
`CC(=O)Nc1ccc(OCC(F)(F)F)c(CN[C@H]2CCCN[C@H]2c2ccccc2)c1.Cl` gave a melting point of over 270 °C.
`Cc1ccc(OC(F)F)c(CN[C@H]2CCCN[C@H]2c2ccccc2)c1.Cl` showed a melting point of over 275 °C.
With `Cl.FC(F)(F)Oc1ccccc1CN[C@H]1CCCN[C@H]1c1ccccc1` the melting point was 231 to 233 °C.

Tested on: CCR5 receptors
Conditions: Proc. Nat'l. Acad. Sci., 98 (7), p3970; cited from earlier work
In the case of `COc1ccccc1CN[C@H]1C2CCN(CC2)[C@H]1C(c1ccccc1)c1ccccc1` [CP-96,345], the “effect on CCR5 receptors” value is given as “down regulates CCR5 receptors”.
